Experimental findings from ChEMBL document CHEMBL4417624, “Small molecule c-myc inhibitors” (2016) are described below.

For data set [1], the target named is Myc proto-oncogene protein (Homo sapiens) (UniProt P01106). In words: Inhibition of human ATG-Myc expressed in chicken embryo fibroblasts assessed as reduction in Myc-induced oncogenic transformation by measuring efficiency of oncogenic transformation at 10 uM.
Data set [2] deals with T1, c-Myc/Max (Homo sapiens) (UniProt P01106+P61244). Briefly: Inhibition of dimerization of human MYC bHLH-LZ domain/MAX bHLH-LZ domain expressed in Escherichia coli in presence of Alexa Fluor 594-tagged E-box duplex DNA by fluorescence polarization assay. (In general: In fluorescence polarisation assays a small probe gives low polarisation when free and higher when bound to something large.)

For data set [3], the target named is Myc proto-oncogene protein (Homo sapiens) (UniProt P01106). In words: Inhibition of human ATG-Myc expressed in chicken embryo fibroblasts assessed as reduction in Myc-induced oncogenic transformation by measuring efficiency of oncogenic transformation.
Data set [4] concerns the target T1, c-Myc/Max (Homo sapiens). Briefly: Inhibition of MYC/MAX dimerization in human MDA-MB-231 cells assessed as reduction in Myc expression at 20 uM incubated for 24 hrs by Western blot analysis. The data set is classed as cell-based.
Data set [5] addresses T1, c-Myc/Max (Homo sapiens). Briefly: Inhibition of MYC/MAX dimerization in human MDA-MB-231 cells assessed as increase in NDRG1 expression at 20 uM incubated for 24 hrs by Western blot analysis. It is filed as cell-based. On the technique in general: Immunoblotting shows a protein as a band on a membrane.
The target of data set [6] is Myc proto-oncogene protein (Homo sapiens) (UniProt P01106). The conditions noted are these: MDA-MB-231, 20 uM.
Description: Inhibition of Myc in human MDA-MB-231 cells assessed as increase in NDRG1 expression at 20 uM incubated for 24 hrs by Western blot analysis
The species entered for data set [7] is Homo sapiens. In words: Inhibition of PI3K H1047R mutant (unknown origin) expressed in chicken embryo fibroblasts assessed as reduction in Myc-induced oncogenic transformation by measuring efficiency of oncogenic transformation up to 20 uM.
Data set [8] has as its system Avian sarcoma virus 17. In words: Inhibition of Avian sarcoma virus 17 v-Jun expressed in chicken embryo fibroblasts assessed as reduction in Myc-induced oncogenic transformation by measuring efficiency of oncogenic transformation up to 20 uM.
For data set [9], the system named is Raji. Briefly: Antiproliferative activity against human Raji cells assessed as inhibition of cell proliferation at 2.5 to 10 uM incubated for 72 hrs by resazurin dye based assay. The data set is classed as functional. A general note: Resazurin is reduced to fluorescent resorufin, in cell work by metabolically active cells.
Data set [10] is described as follows: Antiproliferative activity against HSF assessed as inhibition of cell proliferation at 50 uM incubated for 3 days by Cell-titer 96 Non-radioactive cell proliferation assay. The settings on record: human, 72 h.
Data set [11] has as its system MDA-MB-231. In words: Antitumor activity against human MDA-MB-231 cells xenografted in nude mouse assessed as reduction tumor weight at 10 mg/kg, ip dosed daily for 31 days. It is filed as functional, organism-based.
The subject of data set [12] is Mus musculus. Briefly: Inhibition of Myc in nude mouse xenografted with human MDA-MB-231 cells assessed as increase in NDRG1 expression at 10 mg/kg, ip dosed daily for 31 days by immunofluorescent staining. The data set is classed as functional, organism-based.
Data set [13] has as its system K562. In words: Antiproliferative activity against human K562 cells assessed as inhibition of cell proliferation at 25 uM incubated for 3 days by Cell-titer 96 Non-radioactive cell proliferation assay. The data set is classed as functional, cell-based.
For data set [14], the system named is SUM-159-PT. In words: Antiproliferative activity against human SUM159PT cells assessed as inhibition of cell proliferation at 10 to 40 uM incubated for 3 days by Cell-titer 96 Non-radioactive cell proliferation assay. It is filed as functional, cell-based.
Data set [15] deals with MDA-MB-231. In words: Antitumor activity against human MDA-MB-231 cells xenografted in nude mouse assessed as reduction tumor volume at 10 mg/kg, ip dosed daily for 31 days. The data set is classed as functional, organism-based.
The test system of data set [16] is SW480. Briefly: Antiproliferative activity against human SW480 cells assessed as inhibition of cell proliferation at 50 uM incubated for 3 days by Cell-titer 96 Non-radioactive cell proliferation assay. The data set is classed as functional, cell-based.
Data set [17] deals with NCI-H460. In words: Antiproliferative activity against human NCI-H460 cells assessed as inhibition of cell proliferation at 10 to 40 uM incubated for 3 days by Cell-titer 96 Non-radioactive cell proliferation assay. The data set is classed as functional, cell-based.
Data set [18] is described as follows: Acute toxicity in mouse at 10 mg/kg. It is filed as organism-based. The settings on record: in vivo.
Data set [19] relates to MDA-MB-231. Briefly: Antiproliferative activity against human MDA-MB-231 cells assessed as inhibition of cell proliferation at 10 to 40 uM incubated for 3 days by Cell-titer 96 Non-radioactive cell proliferation assay. The data set is classed as functional, cell-based.
The subject of data set [20] is HL-60. Briefly: Antiproliferative activity against human HL60 cells assessed as inhibition of cell proliferation at 25 uM incubated for 3 days by Cell-titer 96 Non-radioactive cell proliferation assay. The data set is classed as functional, cell-based.
For data set [21], the system named is MDA-MB-231. In words: Effect on Myc expression in human MDA-MB-231 cells at 20 uM incubated for 24 hrs by Western blot analysis. The data set is classed as functional, cell-based.
The test system of data set [22] is MOLT-4. In words: Antiproliferative activity against human MOLT4 cells assessed as inhibition of cell proliferation at 25 uM incubated for 3 days by Cell-titer 96 Non-radioactive cell proliferation assay. It is filed as functional, cell-based.
Data set [23] concerns Cotesia glomerata. In words: Antiproliferative activity against methylcholanthrene-transformed primary quail embryo fibroblasts assessed as inhibition of cell proliferation at 50 uM incubated for 3 days by Cell-titer 96 Non-radioactive cell proliferation assay. The data set is classed as functional.
Data set [24] relates to Ramos. Briefly: Antiproliferative activity against human Ramos cells assessed as inhibition of cell proliferation at 2.5 to 10 uM incubated for 72 hrs by resazurin dye based assay. It is filed as functional.
Data set [25] relates to Mus musculus. In words: Inhibition of Myc in nude mouse xenografted with human MDA-MB-231 cells assessed as increase in NDRG1 expression at 10 mg/kg, ip dosed daily for 31 days by Western blot analysis. The data set is classed as functional, organism-based.
A short description of data set [26]: Acute toxicity in rat at 10 mg/kg. The data set is classed as organism-based. The settings on record: in vivo.
Data set [27] has as its system Cotesia glomerata. Briefly: Antiproliferative activity against v-myc-transformed primary QEF/MC29 cells assessed as inhibition of cell proliferation at 50 uM incubated for 3 days by Cell-titer 96 Non-radioactive cell proliferation assay. It is filed as functional.
Data set [28] can be described thus: Toxicity in nude mouse xenografted with human MDA-MB-231 cells assessed as effect on body weight at 10 mg/kg, ip dosed daily for 31 days. The settings on record: in vivo, 744 h. It is filed as organism-based.
Data set [29] has as its system Rous sarcoma virus. Briefly: Inhibition of Rous sarcoma virus v-SRC expressed in chicken embryo fibroblasts assessed as reduction in Myc-induced oncogenic transformation by measuring efficiency of oncogenic transformation up to 20 uM.
For data set [30], the species on record is Homo sapiens. Briefly: Antiproliferative activity against human Akata cells assessed as inhibition of cell proliferation at 2.5 to 10 uM incubated for 72 hrs by resazurin dye based assay. The data set is classed as functional.

Active and inactive are the calls of the source. No cut-off for these calls is given here.

Chain of Myc proto-oncogene protein (Homo sapiens) (P01106 whole entry, the tested form may be a part): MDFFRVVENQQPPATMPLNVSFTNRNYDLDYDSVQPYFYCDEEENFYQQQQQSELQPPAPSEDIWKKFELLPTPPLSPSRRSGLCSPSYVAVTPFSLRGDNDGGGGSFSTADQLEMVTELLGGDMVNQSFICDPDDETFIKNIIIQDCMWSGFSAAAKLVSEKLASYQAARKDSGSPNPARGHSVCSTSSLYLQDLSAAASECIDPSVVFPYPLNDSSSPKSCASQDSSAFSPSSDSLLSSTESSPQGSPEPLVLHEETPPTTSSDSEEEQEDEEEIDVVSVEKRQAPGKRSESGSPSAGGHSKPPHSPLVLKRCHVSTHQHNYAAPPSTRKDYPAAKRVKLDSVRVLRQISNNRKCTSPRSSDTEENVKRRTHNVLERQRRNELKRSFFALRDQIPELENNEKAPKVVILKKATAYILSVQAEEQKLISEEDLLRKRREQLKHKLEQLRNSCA

As a reminder, the inhibition is the share of the control response that was lost under treatment. Turning to `N#Cc1ccc(-c2cc(-c3ccc(C(N)=O)cc3)cc(-c3ccco3)n2)cc1`, the inhibition in data set [1] was found to be 100%. For the same compound, the inhibition result in data set [2] and in data set [3] was “Active” in each case.

As for `NC(=O)c1ccc(-c2cc(-c3ccc(OC(F)(F)F)cc3)nc(-c3ccco3)c2)cc1`, the inhibition result in [1] and in [2] was “Active” in each case.

As for `NC(=O)c1ccc(-c2cc(-c3ccc(C(F)(F)F)cc3)nc(-c3ccco3)c2)cc1`, the inhibition result in data set [1] and in data set [2] was “Active” in each case.

Turning to `NC(=O)c1ccc(-c2cc(-c3ccncc3)nc(-c3ccc([N+](=O)[O-])cc3)c2)cc1`, in [1], the inhibition was found to be 100%. In addition, in data set [2], the inhibition entry is “Active”.

Consider `NC(=O)c1ccc(-c2cc(-c3ccc(SC(F)(F)F)cc3)nc(-c3ccco3)c2)cc1`, for which the inhibition result in data set [1] and in data set [2] was “inactive” each time.

On to `NC(=O)c1ccc(-c2cc(-c3ccc(S(N)(=O)=O)cc3)nc(-c3ccco3)c2)cc1`, for which the inhibition entry in data set [2] is “Active”.

With `NC(=O)c1ccc(-c2cc(-c3ccc([N+](=O)[O-])cc3)nc(-c3cccc(Br)n3)c2)cc1`, the inhibition entry in data set [1] and in [2] was “inactive” each time.

On to `CCc1ccc(/C=C2/SC(=S)NC2=O)cc1`, for which the inhibition entry in data set [4] and in data set [5] was “Active” each time.

In the case of `NC(=O)c1ccc(-c2cc(-c3ccc([N+](=O)[O-])cc3)nc(-c3ccco3)c2)o1`, the inhibition result in data set [1] and in [2] was “Active” throughout.

Take `NC(=O)c1ccc(-c2cc(-c3ccc([N+](=O)[O-])cc3)nc(-c3ccc(Br)cn3)c2)cc1`: the inhibition entry in data set [1] and in data set [2] was “inactive” throughout.

On to `CN1CCN(c2ccc(-c3cc(-c4ccc(C(N)=O)cc4)cc(-c4ccc([N+](=O)[O-])cc4)n3)cc2)CC1`, for which the inhibition result in data set [2] is “inactive”. Moreover, the inhibition entry in data set [3] is “Active”.

`NC(=O)c1ccc(-c2cc(-c3ccc(Br)cc3)nc(-c3ccc([N+](=O)[O-])cc3)c2)cc1`: the inhibition entry in data set [1] and in data set [2] was “inactive” each time.

On to `NC(=O)c1ccc(-c2cc(-c3ccc([N+](=O)[O-])cc3)nc(-c3ccccc3Br)c2)cc1`, for which the inhibition entry in data set [1] and in data set [2] was “inactive” in each case.

With `COC(=O)c1cccc(-c2cc(-c3ccc(C(N)=O)cc3)cc(-c3ccco3)n2)c1`, in data set [1], the inhibition turned out to be 100%. The inhibition result in data set [2] and in data set [3] was “Active” each time.

Take `COC(=O)c1ccc(-c2cc(-c3ccc(C(N)=O)cc3)cc(-c3ccco3)n2)cc1`: the inhibition result in data set [1] and in data set [2] was “inactive” in each case.

With `NC(=O)c1ccc(-c2cc(-c3ccc([N+](=O)[O-])cc3)nc(-c3ccco3)c2)cc1`, the inhibition entry in [6], in data set [7], in data set [8], in [12], in [2] and in [25] was “Active” throughout. Besides, the inhibition in data set [1] is 100%; in data set [3], “Dose-dependent effect”. The outcome in data set [9], in [11], in data set [13], in data set [14], in [15] and in [17] was Active. In addition, the result in [19], in data set [20], in data set [22], in data set [23], in data set [24] and in data set [27] was Active. For the same compound, in data set [30], the result was Active. Moreover, the Activity result in data set [10], in data set [18], in data set [26] and in data set [28] was “Non-Toxic” throughout. For the same compound, the result in data set [16] and in data set [21] was inactive. The inhibition result in [29] is “inactive”.

For `NC(=O)c1ccc(-c2cc(-c3ccc([N+](=O)[O-])cc3)nc(-c3ccccn3)c2)cc1`, the inhibition result in data set [1] and in data set [2] was “inactive” in each case.

As to `CS(=O)(=O)c1ccc(-c2cc(-c3ccc(C(N)=O)cc3)cc(-c3ccco3)n2)cc1`, the inhibition result in [1] and in data set [2] was “inactive” in each case.
